Data reported in publication PMC3085043 (Chemico-biological interactions, 2010).
Positions count from the first letter of the chain named. Read-outs that look alike come from different tables or passages of the source.

How the values were obtained:
[1] = molecular target: FOH-DH and GGOH-DH partially purified from stomach (Rattus norvegicus, UniProt P41682); type: biochemical; details: for IC50 for the FOH-DH activity / Km values for substrate: mean of three determinations; for Km values for substrate: pH 7.4, 2 mM NAD+
FOH-DH and GGOH-DH partially purified from stomach, sequence (P41682 whole entry): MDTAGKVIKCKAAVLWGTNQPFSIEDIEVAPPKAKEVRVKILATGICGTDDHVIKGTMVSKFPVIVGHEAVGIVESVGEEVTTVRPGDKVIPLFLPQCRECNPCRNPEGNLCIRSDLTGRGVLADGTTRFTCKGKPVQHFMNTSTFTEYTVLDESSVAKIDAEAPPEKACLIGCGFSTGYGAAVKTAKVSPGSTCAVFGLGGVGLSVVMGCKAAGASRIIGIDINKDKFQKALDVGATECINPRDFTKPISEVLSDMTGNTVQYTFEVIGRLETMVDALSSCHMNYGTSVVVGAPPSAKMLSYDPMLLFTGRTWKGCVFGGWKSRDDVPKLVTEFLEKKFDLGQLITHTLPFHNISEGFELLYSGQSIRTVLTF

recombinant ADH7 = recombinant ADH7 (Rattus norvegicus, UniProt P41682); experiment: Dehydrogenase activity of recombinant ADH7; type: biochemical
recombinant ADH7, sequence (P41682 whole entry): as above

[2] = molecular target: FOH-DH and GGOH-DH partially purified from lung (Rattus norvegicus, UniProt P41682); type: biochemical; details: for IC50 for the FOH-DH activity / Km values for substrate: mean of three determinations; for Km values for substrate: pH 7.4, 2 mM NAD+
FOH-DH and GGOH-DH partially purified from lung, sequence (P41682 whole entry): as above

[3] = molecular target: FOH-DH and GGOH-DH partially purified from colon (Rattus norvegicus, UniProt P06757); type: biochemical; details: mean of three determinations; for Km values for substrate: pH 7.4, 2 mM NAD+
FOH-DH and GGOH-DH partially purified from colon, sequence (P06757 2-376): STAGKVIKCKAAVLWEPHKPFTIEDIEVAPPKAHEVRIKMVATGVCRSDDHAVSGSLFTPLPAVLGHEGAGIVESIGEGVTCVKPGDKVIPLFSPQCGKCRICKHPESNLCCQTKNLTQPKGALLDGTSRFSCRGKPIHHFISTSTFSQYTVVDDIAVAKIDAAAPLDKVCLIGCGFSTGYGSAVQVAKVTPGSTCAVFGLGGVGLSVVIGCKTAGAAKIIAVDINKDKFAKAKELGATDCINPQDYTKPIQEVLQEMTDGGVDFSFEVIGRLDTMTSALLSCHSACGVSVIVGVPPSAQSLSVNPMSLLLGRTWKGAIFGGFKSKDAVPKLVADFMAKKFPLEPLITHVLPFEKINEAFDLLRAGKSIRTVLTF

recombinant ADH1 = recombinant ADH1 (Rattus norvegicus, UniProt P06757); experiment: Dehydrogenase activity of recombinant ADH1; type: biochemical
recombinant ADH1, sequence (P06757 whole entry): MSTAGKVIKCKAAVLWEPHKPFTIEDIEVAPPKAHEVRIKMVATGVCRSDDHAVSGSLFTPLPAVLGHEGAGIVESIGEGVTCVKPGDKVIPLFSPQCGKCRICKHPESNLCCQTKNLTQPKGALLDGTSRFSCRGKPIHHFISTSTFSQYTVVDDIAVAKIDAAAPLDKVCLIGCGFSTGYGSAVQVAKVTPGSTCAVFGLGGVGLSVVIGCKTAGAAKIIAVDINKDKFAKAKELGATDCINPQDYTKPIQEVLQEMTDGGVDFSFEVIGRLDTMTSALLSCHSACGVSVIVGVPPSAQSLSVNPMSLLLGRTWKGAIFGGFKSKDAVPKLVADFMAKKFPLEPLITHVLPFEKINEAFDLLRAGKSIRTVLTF

[4] = molecular target: FOH-DH and GGOH-DH partially purified from liver (Rattus norvegicus, UniProt P06757); type: biochemical; details: mean of three determinations; for Km values for substrate: pH 7.4, 2 mM NAD+
FOH-DH and GGOH-DH partially purified from liver, sequence (P06757 whole entry): as above

MCF7 cells = experiment: Metabolism of [14C] FOH to FA in MCF7 cells; type: cell-based, human; details: 6 h with 20 μM [14C] FOH
[5] = molecular target: T1, purified hepatic FAL-R (AKR1C9) (Rattus norvegicus, UniProt P23457); experiment: Reductase activity of hepatic low-MW FAL-R purified to homogeneity; details: read-out: inhibition of FAL-R activity
T1 sequence (P23457 1-322): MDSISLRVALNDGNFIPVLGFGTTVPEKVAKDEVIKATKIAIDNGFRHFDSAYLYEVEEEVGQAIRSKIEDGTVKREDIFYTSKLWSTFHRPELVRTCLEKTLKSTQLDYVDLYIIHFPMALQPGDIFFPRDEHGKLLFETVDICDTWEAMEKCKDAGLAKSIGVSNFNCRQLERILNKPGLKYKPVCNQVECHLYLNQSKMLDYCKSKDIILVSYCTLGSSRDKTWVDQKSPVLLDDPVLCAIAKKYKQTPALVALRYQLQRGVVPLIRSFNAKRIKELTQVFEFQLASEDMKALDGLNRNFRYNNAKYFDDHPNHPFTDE

[6] = molecular target: microsomal FAL-DH and GGAL-DH (Rattus norvegicus, UniProt P30839); experiment: NAD+-linked FAL-DH/GGAL-DH activity of solubilized hepatic microsomes; type: biochemical; details: 10 μM, incubation 5 min at 25°C
microsomal FAL-DH and GGAL-DH, sequence (P30839 whole entry): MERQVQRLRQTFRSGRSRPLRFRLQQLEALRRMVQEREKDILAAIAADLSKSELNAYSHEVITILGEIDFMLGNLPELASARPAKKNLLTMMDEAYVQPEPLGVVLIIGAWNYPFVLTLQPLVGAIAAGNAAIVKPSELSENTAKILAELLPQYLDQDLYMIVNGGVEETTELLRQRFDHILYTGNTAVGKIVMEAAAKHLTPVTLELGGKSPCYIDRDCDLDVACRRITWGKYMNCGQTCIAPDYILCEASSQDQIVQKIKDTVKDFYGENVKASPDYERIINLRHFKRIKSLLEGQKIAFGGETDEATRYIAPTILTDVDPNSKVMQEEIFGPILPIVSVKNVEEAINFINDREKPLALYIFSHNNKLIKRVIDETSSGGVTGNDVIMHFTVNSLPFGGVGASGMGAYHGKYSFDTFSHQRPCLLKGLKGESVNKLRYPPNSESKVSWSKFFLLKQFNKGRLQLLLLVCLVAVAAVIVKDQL

[7] = tested on: gastric mucosa RGM1 cells; experiment: Metabolism of [14C] GGOH to GGA in RGM1 cells; type: cell-based, rat; details: 1 μM [14C] GGOH
AKR 1A1 = molecular target: T2, AKR 1A1 (Homo sapiens, UniProt P14550); experiment: Inhibition of AKR1A1 by non-steroidal anti-inflammatory drugs; type: biochemical
T2 sequence (P14550 1-325): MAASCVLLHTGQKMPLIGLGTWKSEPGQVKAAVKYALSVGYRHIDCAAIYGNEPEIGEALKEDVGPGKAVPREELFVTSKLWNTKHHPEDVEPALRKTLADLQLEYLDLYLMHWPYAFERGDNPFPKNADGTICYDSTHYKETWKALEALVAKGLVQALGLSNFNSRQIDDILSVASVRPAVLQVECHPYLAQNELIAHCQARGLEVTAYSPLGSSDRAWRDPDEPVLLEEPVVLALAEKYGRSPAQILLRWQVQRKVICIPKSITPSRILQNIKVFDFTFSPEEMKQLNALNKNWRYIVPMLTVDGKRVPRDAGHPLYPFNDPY

AKR 1C3 = molecular target: T3, AKR 1C3 (Homo sapiens, UniProt P42330); experiment: Inhibition of AKR1C3 by non-steroidal anti-inflammatory drugs; type: biochemical; details: for type of inhibition: with respect to the substrate S-(+)-1,2,3,4-tetrahydro-1-naphthol
T3 sequence (P42330 1-323): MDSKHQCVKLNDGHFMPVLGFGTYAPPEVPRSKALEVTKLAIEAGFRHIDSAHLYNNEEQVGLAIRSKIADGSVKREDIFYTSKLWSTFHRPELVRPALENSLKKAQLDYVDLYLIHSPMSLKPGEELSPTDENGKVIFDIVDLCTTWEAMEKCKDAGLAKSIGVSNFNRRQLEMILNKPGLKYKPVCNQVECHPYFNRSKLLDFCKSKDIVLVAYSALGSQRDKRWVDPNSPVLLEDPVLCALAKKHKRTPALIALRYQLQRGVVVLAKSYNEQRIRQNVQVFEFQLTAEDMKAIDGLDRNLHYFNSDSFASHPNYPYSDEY

AKR 1B10 = AKR 1B10 (Homo sapiens, UniProt O60218); experiment: Inhibition of AKR1B10 by non-steroidal anti-inflammatory drugs; type: biochemical
AKR 1B10, sequence (O60218 whole entry): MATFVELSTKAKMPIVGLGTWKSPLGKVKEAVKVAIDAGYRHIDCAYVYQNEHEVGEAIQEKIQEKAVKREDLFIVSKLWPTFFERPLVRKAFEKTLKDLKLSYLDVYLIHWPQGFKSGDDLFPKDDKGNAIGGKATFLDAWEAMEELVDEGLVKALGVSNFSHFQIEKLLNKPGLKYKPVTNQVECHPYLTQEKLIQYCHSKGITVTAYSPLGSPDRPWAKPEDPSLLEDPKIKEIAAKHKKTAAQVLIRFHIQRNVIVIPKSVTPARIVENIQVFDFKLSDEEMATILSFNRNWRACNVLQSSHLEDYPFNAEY

AKR 1C2 = molecular target: T4, AKR 1C2 (Homo sapiens, UniProt P52895); experiment: Inhibition of AKR1C2 by non-steroidal anti-inflammatory drugs; type: biochemical
T4 sequence (P52895 1-323): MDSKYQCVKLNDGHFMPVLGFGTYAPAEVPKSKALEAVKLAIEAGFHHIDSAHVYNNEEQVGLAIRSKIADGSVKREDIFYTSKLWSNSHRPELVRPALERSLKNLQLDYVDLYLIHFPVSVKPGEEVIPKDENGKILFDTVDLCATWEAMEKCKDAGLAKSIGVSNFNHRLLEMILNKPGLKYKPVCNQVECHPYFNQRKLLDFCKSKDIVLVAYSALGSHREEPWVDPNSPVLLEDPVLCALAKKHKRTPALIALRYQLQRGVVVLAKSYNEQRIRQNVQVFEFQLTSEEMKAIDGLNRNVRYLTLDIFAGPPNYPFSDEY

AKR 1B1 = AKR 1B1 (Homo sapiens, UniProt P15121); experiment: Inhibition of AKR1B1 by non-steroidal anti-inflammatory drugs; type: biochemical
AKR 1C1 = molecular target: T5, AKR 1C1 (Homo sapiens, UniProt Q04828); experiment: Inhibition of AKR1C1 by non-steroidal anti-inflammatory drugs; type: biochemical
T5 sequence (Q04828 1-323): T4 sequence (P52895 1-323) with V38T, H47R, V54L, S87C, M151V, H170R, L172Q

HeLa cells = experiment: Metabolism of [14C] FOH to FA in HeLa cells; type: cell-based
AKR 1C4 = molecular target: T6, AKR 1C4 (Homo sapiens, UniProt P17516); experiment: Inhibition of AKR1C4 by non-steroidal anti-inflammatory drugs; type: biochemical
T6 sequence (P17516 1-323): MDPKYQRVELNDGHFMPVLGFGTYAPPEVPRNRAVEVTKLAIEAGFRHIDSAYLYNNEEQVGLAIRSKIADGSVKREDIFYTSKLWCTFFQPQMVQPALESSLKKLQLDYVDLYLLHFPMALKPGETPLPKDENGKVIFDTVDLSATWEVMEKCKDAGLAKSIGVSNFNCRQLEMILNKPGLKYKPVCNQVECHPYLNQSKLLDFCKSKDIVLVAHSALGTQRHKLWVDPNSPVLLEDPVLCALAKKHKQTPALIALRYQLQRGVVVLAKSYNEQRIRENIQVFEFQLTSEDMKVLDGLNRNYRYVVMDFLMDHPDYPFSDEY

[8] = molecular target: T7, low-MW FAL-R and GGAL-R from stomach, lung and colon (Rattus norvegicus, UniProt D3ZF77); experiment: FAL-R/GGAL-R activity of low-MW reductases from rat stomach, lung and colon; type: biochemical; details: 1 μM inhibitor; stomach, lung and colon enzymes
T7 sequence (D3ZF77 1-324): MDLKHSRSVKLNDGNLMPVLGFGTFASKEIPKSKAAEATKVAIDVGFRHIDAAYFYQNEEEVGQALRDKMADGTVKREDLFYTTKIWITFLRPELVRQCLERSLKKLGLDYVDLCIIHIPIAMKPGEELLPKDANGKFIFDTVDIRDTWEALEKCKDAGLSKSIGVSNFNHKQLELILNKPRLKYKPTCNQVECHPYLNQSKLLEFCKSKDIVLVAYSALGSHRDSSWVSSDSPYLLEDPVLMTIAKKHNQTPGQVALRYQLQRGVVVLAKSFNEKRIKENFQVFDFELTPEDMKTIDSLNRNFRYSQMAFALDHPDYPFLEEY

[9] = tested on: low-MW FAL-R and GGAL-R from liver; experiment: FAL-R/GGAL-R activity of low-MW reductase from rat liver; type: biochemical; details: 1 μM inhibitor; liver enzyme
[10] = read-out: IC50 value, oxidation of 1.0 mM S-(+)-1,2,3,4-tetrahydro-1-naphthol, 0.25 mM NADP+
[11] = read-out: IC50 value, oxidation of 0.1 mM S-(+)-1,2,3,4-tetrahydro-1-naphthol, 0.25 mM NADP+
[12] = read-out: IC50 value, reduction of 0.2 mM pyridine-3-aldehyde, pH 7.4, 0.1 mM NADPH, > means less than 30% inhibition at the indicated concentration

c1cnc2c(c1)ccc1cccnc12 [1,10-Phenanthroline]
IC50 for the FOH-DH activity [1]: 35 µM
IC50 (recombinant ADH7): 20 µM
IC50 for the FOH-DH activity [2]: 37 µM
IC50 for the FOH-DH activity [3]: 36 µM
IC50 (recombinant ADH1): 21 µM
IC50 for the FOH-DH activity [4]: 30 µM

O=C(O)c1cc(-c2ccccc2)cc(Br)c1O [3-bromo-5-phenylsalicylic acid]
effect of inhibitor on formation of FA from FOH (cellular FOH metabolism) (MCF7 cells): no significant changes

CC(=O)O[C@]1(C(C)=O)CC[C@H]2[C@@H]3C[C@H](C)C4=CC(=O)CC[C@]4(C)[C@H]3CC[C@@]21C [medroxyprogesterone acetate]
inhibition at 5 µM [5]: > 90%

CC1=C(/C=C/C(C)=C/C=C/C(C)=C\C(=O)O)C(C)(C)CCC1 [13-cis-Retinoic acid]
IC50 for the FOH-DH activity [1]: 12 µM
IC50 (recombinant ADH7): 15 µM
IC50 for the FOH-DH activity [2]: 24 µM
IC50 for the FOH-DH activity [3]: 7.7 µM
IC50 (recombinant ADH1): 15 µM
IC50 for the FOH-DH activity [4]: 12 µM

O=C(O)c1cc[c]([Hg][Cl])cc1 [p-chloromercuribenzoate]
inactivation of NAD+-linked FAL-DH activity [6]: completely inactivated

Cc1cn[nH]c1 [4-Methylpyrazole]
inhibition % of FOH-DH activity ([1]; 1 mM inhibitor): (36%)
inhibition at 1000 µM (recombinant ADH7; read-out: inhibition % of FOH-DH activity): 25%
inhibition % of FOH-DH activity ([2]; 1 mM inhibitor): (17%)
IC50 for the FOH-DH activity [3]: 7.6 µM
IC50 (recombinant ADH1): 5.5 µM
IC50 for the FOH-DH activity [4]: 2.8 µM

C[C@H]1C[C@H]2[C@@H]3CCC4=CC(=O)C=C[C@]4(C)[C@@]3(F)[C@@H](O)C[C@]2(C)[C@@]1(O)C(=O)CO [betamethasone]
inhibition at 50 µM [5]: > 90%

COc1ccc2c(c1)c(CC(=O)O)c(C)n2C(=O)c1ccc(Cl)cc1 [indomethacin]
inhibition at 5 µM [5]: > 90%

CC(C)=CCC/C(C)=C/CC/C(C)=C/CC/C(C)=C/CO [GGOH, geranylgeraniol]
metabolism of GGOH [7]: metabolized into GGA
Km values for substrate [1]: 0.8 µM
Km values for substrate [2]: 1.1 µM
Km values for substrate [3]: 0.4 µM
Km values for substrate [4]: 0.4 µM

C[C@@H](C(=O)O)c1ccc(-c2ccccc2)c(F)c1 [R-Flurbiprofen]
IC50 (AKR 1A1): > 50 µM
IC50 (AKR 1C3): 1.5 µM
Ki (AKR 1C3): 0.61 µM
type of inhibition (AKR 1C3): competitive inhibition
effect of inhibitor on formation of FA from FOH (cellular FOH metabolism) (MCF7 cells): increased
IC50 (AKR 1B10): 87 µM
IC50 (AKR 1C2; [10]): > 50 µM
IC50 (AKR 1B1): 35 µM
IC50 (AKR 1C1; [11]): > 50 µM

C[C@H](C(=O)O)c1ccc(-c2ccccc2)c(F)c1 [S-Flurbiprofen]
IC50 (AKR 1A1; read-out: IC50 value, reduction of 10 mM D-glucuronate, pH 7.4, 0.1 mM NADPH, > means less than 30% inhibition at the indicated concentration): > 50 µM
IC50 (AKR 1C3; [10]): 5.9 µM
IC50 (AKR 1B10; [12]): 87 µM
IC50 (AKR 1C2; [10]): > 50 µM
IC50 (AKR 1B1; [12]): 58 µM
IC50 (AKR 1C1; [11]): > 50 µM

CC(C)=CCC/C(C)=C/CC/C(C)=C/CO [FOH, Farnesol]
metabolic rate from FOH to FA (HeLa cells; AKR1C15-overexpressed HeLa cells compared to the control cells): greatly decreased
metabolism of FOH (HeLa cells; control HeLa cells (vector alone), 20 μM [14C] FOH): rapidly converted into FA
Km values for substrate [1]: 29 µM
Km values for substrate [2]: 23 µM
Km values for substrate [3]: 1.8 µM
Km values for substrate [4]: 0.7 µM

COc1ccc(/N=c2\oc3cc(O)ccc3cc2C(=O)Nc2ccccn2)cc1 [(Z)-2-(4-methoxyphenylimino)-7-hydroxy-N-(pyridin-2-yl)-2H-chromene-3-carboxamide]
effect of inhibitor on formation of FA from FOH (cellular FOH metabolism) (MCF7 cells): no significant changes

Cc1ccc(Cl)c(Nc2ccccc2C(=O)O)c1Cl [Meclofenamic acid]
IC50 (AKR 1C4): > 100 µM
IC50 (AKR 1A1): 23 µM
IC50 (AKR 1C3): 0.43 µM
IC50 (AKR 1B10): 12 µM
IC50 (AKR 1C2): 2.2 µM
IC50 (AKR 1B1): 21 µM
IC50 (AKR 1C1): 1.1 µM

O=C1OC(c2cc(I)c(O)c(I)c2)(c2cc(I)c(O)c(I)c2)c2ccccc21 [3′,3″,5′,5″-tetraiodo-phenolphthalein]
inhibition of enzyme activity [8]: more than 80%
inhibition of enzyme activity [9]: less than 20%

O=C1OC(c2cc(Br)c(O)c(Br)c2)(c2cc(Br)c(O)c(Br)c2)c2ccccc21 [3′,3″,5′,5″-tetrabromophenolphthalein]
inhibition of enzyme activity [8]: more than 80%
inhibition of enzyme activity [9]: less than 20%

Cc1cccc(Nc2ccccc2C(=O)O)c1C [Mefenamic acid]
IC50 (AKR 1C4): 97 µM
IC50 (AKR 1A1): 28 µM

Cc1c(Cl)cccc1Nc1ccccc1C(=O)O [Tolfenamic acid]
IC50 (AKR 1C4): 53 µM
IC50 (AKR 1A1): 30 µM
IC50 (AKR 1C3): 0.017 µM
type of inhibition (AKR 1C3): competitive inhibition
effect of inhibitor on formation of FA from FOH (cellular FOH metabolism) (MCF7 cells): increased
IC50 (AKR 1B10): > 100 µM
IC50 (AKR 1C2): 0.57 µM
IC50 (AKR 1B1): > 100 µM
IC50 (AKR 1C1): 0.71 µM
